These results are taken from patent US8536157B2, “Non-steroidal compounds” (The University of Melbourne, priority 2007, dated 2013).

In assay [1] the test system is PGE2 release in J774 macrophages. Description: PGE2 release from LPS/IFNγ-stimulated J774 macrophages (radioimmunoassay). The assay is classed as cell-based, murine. Conditions: 30 min pre-treatment, 24 hour incubation; for activity at 10 µM / activity at 1 µM: Mus musculus, J774, 24 h; for activity at 10 µM: read-out: Effects on PGE2 release in J774 macrophages at l0 μM as a % of LPS/IFNγ control, mean; for activity at 1 µM: read-out: Effects on PGE2 release in J774 macrophages at 1 μM as a % of LPS/IFNγ control, mean.

In assay [2] the target is proteins in rat lung membranes. Kind of assay: Competitive binding assay with [3H]-CP2117 on rat lung membranes (RLM). The note with it: given as Log IC50 (negative values); displacement of 10 nM [3H]-CP2117, overnight at 4° C.; ND- not detected.

As for `COc1cc(-c2ccccc2)c(/C(C)=N/OCc2ccc([N+](=O)[O-])cc2)cc1O` [CP30329, (E)-5′-Hydroxy-4′-methoxy-2′-phenylacetophenone O-4-Nitrobenzyl Oxime], the activity at 10 µM in assay [1] (l0 μM) was 55%. The “Log IC50 RLM binding” value in assay [2] is recorded as −6.2.

Take `COc1cc(-c2ccc(N)cc2)c(/C(C)=N/OCc2ccc([N+](=O)[O-])cc2)cc1O` [CP30381, (E)-2′-(4-Aminophenyl)-5′-hydroxy-4′-methoxyacetophenone O-4-Nitrobenzyl Oxime]: the activity at 1 µM in assay [1] was determined as 62%.

In the case of `COc1ccc(C(=NOCc2ccc([N+](=O)[O-])cc2)[C@H]2CC[C@H](CCO)CC2)cc1O` [CP30347, trans-(3-Hydroxy-4-methoxyphenyl)-4-(2-hydroxyethyl)cyclohexylmethanone O-4-Nitrobenzyl Oxime], in assay [1], the activity at 1 µM came to 102%. Moreover, in assay [1] (l0 μM), the activity at 10 µM was found to be 68%. Moreover, the “Log IC50 RLM binding” value in assay [2] is −5.75.

`COc1cc(-c2cccc(NC(=O)OC(C)(C)C)c2)c(/C(C)=N/OCc2ccc([N+](=O)[O-])cc2)cc1O` [CP30339, (E)-2′-(3-tert-Butoxycarbonylaminophenyl)-5′-hydroxy-4′-methoxyacetophenone O-4-Nitrobenzyl Oxime]: in assay [1] (l0 μM), the activity at 10 µM came to 36%. The “Log IC50 RLM binding” value in assay [2] is −6.64.

`COc1cc2c(cc1OC)/C(=N/OCc1ccc([N+](=O)[O-])cc1)CC2` [TB54, (E)-5,6-Dimethoxy-2,3-dihydroinden-1-one O-4-Nitrobenzyl Oxime]: the activity at 1 µM in assay [1] amounted to 95%. The activity at 10 µM in assay [1] (l0 μM) turned out to be 78%.

With `COc1ccc(/C(C)=N/OCc2cccc(OC(F)(F)F)c2)cc1O` [CP30282, (E)-3′-Hydroxy-4′-methoxyacetophenone O-3-Trifluoromethoxybenzyl Oxime], the “Log IC50 RLM binding” value in assay [2] is −6.41.

Take `COc1cc(-c2ccc(Cl)cc2)c(/C(C)=N/OCc2ccc([N+](=O)[O-])cc2)cc1O` [CP30340, (E)-2′-(4-Chlorophenyl)-5′-hydroxy-4′-methoxyacetophenone O-4-Nitrobenzyl Oxime]: the activity at 10 µM in assay [1] (l0 μM) was found to be 51%. Further, the “Log IC50 RLM binding” value in assay [2] is −6.26.

`COc1cc(-c2ccc(F)cc2)c(/C(C)=N/OCc2ccc([N+](=O)[O-])cc2)cc1O` [CP30344, (E)-2′-(4-Fluorophenyl)-5′-hydroxy-4′-methoxyacetophenone O-4-Nitrobenzyl Oxime]: in assay [1], the activity at 1 µM was 111%. Moreover, the activity at 10 µM in assay [1] (l0 μM) was 94%. Also, the “Log IC50 RLM binding” value in assay [2] is on record as −5.43.

On to `COc1cc(C2CCCCC2)c(C(C)=NOCc2ccc([N+](=O)[O-])cc2)cc1O` [CP30424, 2′-Cyclohexyl-5′-hydroxy-4′-methoxyacetophenone O-4-Nitrobenzyl Oxime], for which, in assay [1], the activity at 1 µM was 83%. In addition, the “Log IC50 RLM binding” value in assay [2] is on record as −6.18.

On to `COc1ccc(/C(C)=N/OCc2ccc(F)cc2)cc1O` [CP30266, (E)-3′-Hydroxy-4′-methoxyacetophenone O-4-Fluorobenzyl Oxime], for which the “Log IC50 RLM binding” value in assay [2] is reported as −6.9.

Take `COc1cc(-c2ccc(OC)c(OC)c2)c(/C(C)=N/OCc2ccc([N+](=O)[O-])cc2)cc1O` [CP30331, (E)-5′-Hydroxy-4′-methoxy-2′-(3,4-dimethoxyphenyl)acetophenone O-4-Nitrobenzyl Oxime]: the activity at 10 µM in assay [1] (l0 μM) is 28%. Also, the “Log IC50 RLM binding” value in assay [2] is −6.14.

For the compound `COc1ccc(C(=NOCc2ccc([N+](=O)[O-])cc2)[C@H]2CC[C@@H](CCO)CC2)cc1O` [CP30348-2, cis-(3-Hydroxy-4-methoxyphenyl)-4-(2-hydroxyethyl)cyclohexylmethanone O-4-Nitrobenzyl Oxime], in assay [1], the “Effects on PGE2 release in J774 macrophages at 1 μM as a % of LPS/IFNγ control, mean” value is recorded as 85 % of LPS/IFNγ control. For the same compound, in assay [1] (l0 μM), the “Effects on PGE2 release in J774 macrophages at l0 μM as a % of LPS/IFNγ control, mean” value is listed as 111 % of LPS/IFNγ control. For the same compound, in assay [2], the “Log IC50 RLM binding” value is given as −5.6.

With `COc1ccc(/C(C)=N/OCc2ccc(F)c(F)c2)cc1O` [CP30281, (E)-3′-Hydroxy-4′-methoxyacetophenone O-3,4-Difluorobenzyl Oxime], the “Log IC50 RLM binding” value in assay [2] was −6.16.

For `COc1ccc(C(=NOCc2ccc([N+](=O)[O-])cc2)[C@H]2CC[C@@H](CCO)CC2)cc1O` [CP30348-1, cis-(3-Hydroxy-4-methoxyphenyl)-4-(2-hydroxyethyl)cyclohexylmethanone O-4-Nitrobenzyl Oxime], in assay [1], the “Effects on PGE2 release in J774 macrophages at 1 μM as a % of LPS/IFNγ control, mean” value was 124 % of LPS/IFNγ control. Further, in assay [1] (l0 μM), the activity at 10 µM amounted to 91%. In addition, the “Log IC50 RLM binding” value in assay [2] is on record as −6.02.

Turning to `COc1cc2c(cc1O)/C(=N/OCc1ccc3nonc3c1)CCC2` [Compound 2-TB-146, (E)-7-Hydroxy-6-methoxy-3,4-dihydronaphthalen-1(2H)-one O-benzo[c][1,2,5]oxadiazol-5-ylmethyl oxime], in assay [2], the “Log IC50 RLM binding” value is on record as −6.91.

In the case of `C/C(=N\OCc1ccc2nonc2c1)c1ccc(F)c(O)c1` [CP9135, 4′-Fluoro-3′-hydroxyacetophenone-O—[(benzo[c][1,2,5]oxadiazol-5-yl)methyl]oxime], the activity at 1 µM in assay [1] is 66%. In addition, the activity at 10 µM in assay [1] (l0 μM) turned out to be 90%. Also, in assay [2], the “Log IC50 RLM binding” value is given as −5.28.

In the case of `COc1cc(-c2ccc(OC(F)(F)F)cc2)c(/C(C)=N/OCc2ccc([N+](=O)[O-])cc2)cc1O` [CP30343, (E)-2′-(4-Trifluoromethoxyphenyl)-5′-hydroxy-4′-methoxyacetophenone O-4-Nitrobenzyl Oxime], in assay [1], the activity at 1 µM is 65%. In addition, in assay [1] (l0 μM), the activity at 10 µM worked out at 51%. In addition, the “Log IC50 RLM binding” value in assay [2] is −6.23.

`COc1cc([C@H]2CC[C@@](C)(CO)CC2)c(C(C)=NOCc2ccc3nonc3c2)cc1O` [CP30453, 2′-(4-Hydroxymethyl-4-methyl)cyclohexyl-5′-hydroxy-4′-methoxyacetophenone O-(benzofurazan-5-yl)methyl Oxime]: the “Log IC50 RLM binding” value in assay [2] is −5.81.

On to `COc1ccc(/C(C)=N/OCc2ccccc2F)cc1O` [CP30280, (E)-3′-Hydroxy-4′-methoxyacetophenone O-2-Fluorobenzyl Oxime], for which the “Log IC50 RLM binding” value in assay [2] was −6.5.

Turning to `COc1cc2c(cc1O)/C(=N/OCc1ccc([N+](=O)[O-])cc1)CCC2` [TB76, (E)-7-Hydroxy-6-methoxy-3,4-dihydronaphthalen-1(2H)-one O-4-Nitrobenzyl Oxime], the “Log IC50 RLM binding” value in assay [2] is reported as −6.48.

Consider `COc1cc2c(cc1O)/C(=N/OCc1ccc3nonc3c1)CC2` [Compound 2-TB-147, (E)-6-Hydroxy-5-methoxy-2,3-dihydro-1H-inden-1-one O-benzo[c][1,2,5]oxadiazol-5-ylmethyl oxime], for which the “Log IC50 RLM binding” value in assay [2] was −6.43.

With `COc1cc2c(cc1O)/C(=N/OCc1ccc([N+](=O)[O-])cc1)CC2` [TB81, (E)-6-Hydroxy-5-methoxy-2,3-dihydroinden-1-one O-4-Nitrobenzyl Oxime], the “Log IC50 RLM binding” value in assay [2] was −6.16.

Turning to `COc1ccc(/C(C)=N/OCc2cccc(F)c2)cc1O` [CP30262, (E)-3′-Hydroxy-4′-methoxyacetophenone O-3-Fluorobenzyl Oxime], the “Log IC50 RLM binding” value in assay [2] was −6.88.

`COc1ccc(-c2cc(OC)c(O)cc2/C(C)=N/OCc2ccc([N+](=O)[O-])cc2)cc1` [CP30338, (E)-5′-Hydroxy-4′-methoxy-2′-(4-methoxyphenyl)acetophenone O-4-Nitrobenzyl Oxime]: the “Log IC50 RLM binding” value in assay [2] is −6.88.
